Test results reported in US20260224563A1, “CRYSTALLINE FORMS OF 6-(3-((5-CHLORO-2-METHOXYPYRIDINE)-3-SULFONAMIDO)-2,6-DIFLUOROPHENYL)-N-METHYLIMIDAZO[1,5-A]PYRAZINE-1-CARBOXAMIDE AND METHODS FOR USING THE SAME” (HIBERCELL, INC., priority 2023, published 2026).
Counter-ions that a name gives are not always drawn.

Tests used:
[1] = Slurry study of potassium salt Form III in organic solvents and water (XRPD); assay type: physicochemical
Method: A slurry study of Form III of the potassium salt in an array of solvents was conducted at 25° C. and 50° C. Approximately 20 mg of Form III of the potassium salt was suspended in 0.5 mL of a solvent (EtOH, IPA, NBA, MEK, acetone, MTBE, EtOAc, IPAc, heptane, DCM, THE, MeCN, and water) and stirred at 25° C. or 50° C. for seven days. Then, the solid sample was collected by vacuum filtration and was analyzed by XRPD.

[2] = Mechanical (grinding) and tableting treatment of Form III of the potassium salt (XRPD); assay type: physicochemical
Method: Form III of the potassium salt was ground manually (e.g., using a mortar and pestle) for 5 minutes. The ground sample was then analyzed by XRPD. No change in the crystal form was observed.
Tableting treatment of Form III of the potassium salt was conducted at 35 MPa pressure for 10 seconds using a tablet machine (HY-12, Tianjin Tianguang Optical Instrument Co., Ltd). The resulting solid was analyzed by XRPD. No change in the crystal form was observed after the tableting treatment. However, the crystallinity of Form III of the potassium salt decreased after the pressure test.

- Result at 3 days (XRPD) ([1]; slurry in Acetone, 25° C.): Potassium salt Form III
- Result at 7 days (XRPD) ([1]; slurry in Acetone, 25° C.): Potassium salt Form III
- Result at 3 days (XRPD) ([1]; slurry in DCM, 25° C.): Potassium salt Form III
- Result at 7 days (XRPD) ([1]; slurry in DCM, 25° C.): Potassium salt Form III
- Result at 3 days (XRPD) ([1]; slurry in DCM, 50° C.): Potassium salt Form III
- Result at 7 days (XRPD) ([1]; slurry in DCM, 50° C.): Potassium salt Form III
- Result at 3 days (XRPD) ([1]; slurry in EtOAc, 25° C.): Potassium salt Form III
- Result at 7 days (XRPD) ([1]; slurry in EtOAc, 25° C.): Potassium salt Form III
- Result at 3 days (XRPD) ([1]; slurry in EtOAc, 50° C.): Potassium salt Form III
- Result at 7 days (XRPD) ([1]; slurry in EtOAc, 50° C.): Potassium salt Form III
- Result at 3 days (XRPD) ([1]; slurry in Heptane, 25° C.): Potassium salt Form III
- Result at 7 days (XRPD) ([1]; slurry in Heptane, 25° C.): Potassium salt Form III
- Result at 3 days (XRPD) ([1]; slurry in Heptane, 50° C.): Potassium salt Form III
- Result at 7 days (XRPD) ([1]; slurry in Heptane, 50° C.): Potassium salt Form III
- Result at 3 days (XRPD) ([1]; slurry in IPA, 25° C.): Potassium salt Form III
- Result at 7 days (XRPD) ([1]; slurry in IPA, 25° C.): Potassium salt Form III
- Result at 3 days (XRPD) ([1]; slurry in IPA, 50° C.): Potassium salt Form I
- Result at 7 days (XRPD) ([1]; slurry in IPA, 50° C.): Potassium salt Form I
- Result at 3 days (XRPD) ([1]; slurry in IPAc, 25° C.): Potassium salt Form III
- Result at 7 days (XRPD) ([1]; slurry in IPAc, 25° C.): Potassium salt Form III
- Result at 3 days (XRPD) ([1]; slurry in IPAc, 50° C.): Potassium salt Form III
- Result at 7 days (XRPD) ([1]; slurry in IPAc, 50° C.): Potassium salt Form III
- Result at 3 days (XRPD) ([1]; slurry in MEK, 25° C.): Potassium salt Form III
- Result at 7 days (XRPD) ([1]; slurry in MEK, 25° C.): Potassium salt Form III
- Result at 3 days (XRPD) ([1]; slurry in MEK, 50° C.): Potassium salt Form III
- Result at 7 days (XRPD) ([1]; slurry in MEK, 50° C.): Potassium salt Form III
- Result at 3 days (XRPD) ([1]; slurry in MTBE, 25° C.): Potassium salt Form III
- Result at 7 days (XRPD) ([1]; slurry in MTBE, 25° C.): Potassium salt Form III
- Result at 3 days (XRPD) ([1]; slurry in MTBE, 50° C.): Potassium salt Form III
- Result at 7 days (XRPD) ([1]; slurry in MTBE, 50° C.): Potassium salt Form III
- Result at 3 days (XRPD) ([1]; slurry in MeCN, 25° C.): Potassium salt Form III
- Result at 7 days (XRPD) ([1]; slurry in MeCN, 25° C.): Potassium salt Form III
- Result at 3 days (XRPD) ([1]; slurry in MeCN, 50° C.): Potassium salt Form I
- Result at 7 days (XRPD) ([1]; slurry in MeCN, 50° C.): Potassium salt Form I
- Result at 3 days (XRPD) ([1]; slurry in NBA, 25° C.): Potassium salt Form III
- Result at 7 days (XRPD) ([1]; slurry in NBA, 25° C.): Potassium salt Form III
- Result at 3 days (XRPD) ([1]; slurry in NBA, 50° C.): Potassium salt Form III
- Result at 7 days (XRPD) ([1]; slurry in NBA, 50° C.): Potassium salt Form III
- Result at 7 days (XRPD) ([1]; slurry in THF, 25° C.): Potassium salt Form III
- Result at 7 days (XRPD) ([1]; slurry in THF, 50° C.): Potassium salt Form III
- Crystallinity ([2]; after tableting treatment at 35 MPa pressure for 10 seconds): decreased
- Change in the crystal form (XRPD) ([2]; ground manually for 5 minutes): No change
- Change in the crystal form (XRPD) ([2]; tableting treatment at 35 MPa pressure for 10 seconds): No change
SMILES: CNC(=O)c1ncn2cc(-c3c(F)ccc(NS(=O)(=O)c4cc(Cl)cnc4OC)c3F)ncc12 [Potassium salt Form III, 6-(3-((5-chloro-2-methoxypyridine)-3-sulfonamido)-2,6-difluorophenyl)-N-methylimidazo[1,5-a]pyrazine-1-carboxamide]
